Laboratory results from patent publication US7833967B2, “Synthetic antimicrobial polypeptides” (priority 2003, dated 2010).

Test system: E. coli TOP10
Assay: Suicide expression system (SES) growth inhibition
Assay type: cell-based
Settings: Table 3; variants of SEQ ID NO:5, re-tested in the Bioscreen C

Row | Substance | Growth inhibition (%)
1 | 53 (RRRPRPFPRPVPRPIPRPFPRPVPRPV; Synthetic antimicrobial peptide) [compound 53] | 62
2 | 43 (RRRPRPFPRPFPRPIPRPFPRPVPRPV; Synthetic antimicrobial peptide) [compound 43] | 68
3 | 60 (RRRPRPIPRPFPRPVPRPVPRPFPRPF; Synthetic antimicrobial peptide) [compound 60] | 70

Same assay, conditions: Table 4; variants of SEQ ID NO:10, re-tested in the Bioscreen C

Row | Substance | Growth inhibition (%)
4 | 117 (RRRPIRPPIRPPFRPPFRPPIRPPFRP; Synthetic antimicrobial peptide) [compound 117] | 77
5 | 123 (RRRPFRPPLRPPIRPPIRPPFRPPFRP; Synthetic antimicrobial peptide) [compound 123] | 65
6 | 73 (RRRPFRPPVRPPFRPPVRPPIRPPVRP; Synthetic antimicrobial peptide) [compound 73] | 65
7 | 191 (RRRPFRPPFRPPIRPPFRPPVRPPFRP; Synthetic antimicrobial peptide) [compound 191] | 77
8 | 100 (RRRPIRPPFRPPFRPPFRPPFRPPFRP; Synthetic antimicrobial peptide) [compound 100] | 84
9 | 75 (RRRPFRPPIRPPVRPPFRPPFRPPFRP; Synthetic antimicrobial peptide) [compound 75] | 79
10 | 97 (RRRPLRPPFRPPFRPPLRPPFRPPIRP; Synthetic antimicrobial peptide) [compound 97] | 69
11 | 175 (RRRPFRPPVRPPFRPPLRPPFRPPFRP; Synthetic antimicrobial peptide) [compound 175] | 77
12 | 65 (RRRPLRPPLRPPVRPPVRPPFRPPFRP; Synthetic antimicrobial peptide) [compound 65] | 89
13 | 142 (RRRPLRPPIRPPVRPPFRPPVRPPFRP; Synthetic antimicrobial peptide) [compound 142] | 70
14 | 177 (RRRPFRPPIRPPFRPPIRPPVRPPIRP; Synthetic antimicrobial peptide) [compound 177] | 75
15 | 71 (RRRPLRPPIRPPFRPPIRPPFRPPFRP; Synthetic antimicrobial peptide) [compound 71] | 82
16 | 109 (RRRPFRPPIRPPVRPPLRPPVRPPFRP; Synthetic antimicrobial peptide) [compound 109] | 71

Same assay, conditions: Table 5; mixed-motif library, re-tested in the Bioscreen C

Row | Substance | Growth inhibition (%)
17 | 235 (RRRPPRLPRPFPLRPPPRVPRPVPFRP; Synthetic antimicrobial peptide) [compound 235] | 94
18 | 221 (RRRPPRLPRPFPIRPPPRFPRPLPFRP; Synthetic antimicrobial peptide) [compound 221] | 93
19 | 220 (RRRPPRLPRPFPIRPPPRFPRPFPVRP; Synthetic antimicrobial peptide) [compound 220] | 90
20 | 209 (RRRPPRIPRPFPIRPPPRFPRPIPFRP; Synthetic antimicrobial peptide) [compound 209] | 78
21 | 281 (RRRPPRLPRPLPLRPPPRFPRPVPLRP; Synthetic antimicrobial peptide) [compound 281] | 91
22 | 241 (RRRPPRLPRPFPVRPPPRIPRPIPFRP; Synthetic antimicrobial peptide) [compound 241] | 96
23 | 315 (RRRPPRVPRPVPVRPPPRIPRPFPVRP; Synthetic antimicrobial peptide) [compound 315] | 98
24 | 218 (RRRPPRLPRPFPFRPPPRVPRPIPVRP; Synthetic antimicrobial peptide) [compound 218] | 93
